Test results published in patent US20240197761A1, “FUCOSYLATION AND IMMUNE MODULATION IN CANCER” (H. LEE MOFFITT CANCER CENTER AND RESEARCH INSTITUTE, INC., priority 2021, published 2024).

How the values were obtained:
SM1 tumors = assay: Immunodepletion mouse model (CD4+ or CD8+ T cell depletion), SM1; format: in vivo, C57BL6 mice; details: CD4+ but not CD8+T cell depletion
Description: Total TILs were gated first to single cells (based on forward scatter height vs width, followed by side scatter height vs. width). Live cells were gated from the Zombie negative population from the population above. TILs were gated based on splenocyte size from a control spleen. Individual immune subpopulations were sub-gated from the total TIL population using the following staining criteria: CD3+ for CD3+ T cells; CD3+/CD4+/CD8− for CD4+T cells; CD3+/CD4−/CD8+ for CD8+ T cells, CD11c+/CD11b+ for DCs; either NK1.1 (for C57/BL6 mice) or DX5 (for C3H/HeJ) for NK cells; CD11b+/GR1+ for MDSC-like cells; and F4/80+ for macrophages. Single-cell suspensions from tumor and spleen tissue were stained with Live/Dead Zombie NIR (Biolegend, (San Diego, CA)) at 1:1,000 in PBS for 20 min. Cell suspensions were spun down and stained with the following with antibodies at 0.5 μg/ml per antibody: APC anti-mouse CD3, Pacific Blue anti-mouse CD4, BV785 anti-mouse CD8, PerCP anti-mouse CD25, FITC anti-mouse F4/80, PeCy7 anti-mouse CD11c, PE anti-mouse NK1.1 or PE anti-mouse DX5, and PerCP-Cy5.5 anti-mouse CD11 b. After staining, the cells were washed and fixed (2% formaldehyde), followed by another wash and flow cytometric analysis. The compensation controls were prepared using 0.5 μg/mL of each antibody with UltraComp eBeads, (ThermoFisher Scientific (Waltham, MA)). […]

SW1 tumors = assay: Anti-PD-1 mouse model, SW1; format: in vivo, C3H/HeN mice
Description: FIGS. 21A and 21B Administration of combination L-fucose and anti-PD-1 suppresses tumors and increases intra-tumoral CD4+T central and effector memory cells (a) Volumetric growth curves for SW1 tumors in C3H/HeN mice (left) and SM1 tumors in C57BL/6 mice (right) fed L-fucose (LF) and treated with PBS (control) or anti-PD-1. (concurrent initiation of LF anti-PD1 (▾)). The tumor growth curves are means±SEM from ≥7 mice per group. (b) Volumetric growth curves for SM1 tumors in C57BL/6 mice fed ±L-fucose (LF) and treated with PBS (control) or anti-PD-1 (PD-1). (concurrent initiation of LF±PD1 (▾)). The tumor growth curves are means±SEM from ≥7 mice per group. *=p<0.05. At Day 7 (prior to administration of LF or PD1), Day 21 (endpoint for tumors of control-treated mice), Day 31 (endpoint for tumors of LF-treated mice), Day 63 (endpoint for tumors of PD1-treated mice), the primary tumors (Tumor) and draining lymph nodes (LN) of 4-5 mice per treatment group were analyzed by flow cytometry for intratumor levels of CD4+ and CD8+T subpopulations (naive/terminal, stem central/central/effector memory) and dendritic cell (DC) subpopulations (cDC1, cDC2, and monocyte-derived DC (moDC)) as in FIG. 15. Proportions of CD4+, CD8+, and DC subpopulations in each organ at each timepoints are represented by the color-coded pie charts (each pie chart represents 4-5 mice). […]

With `C[C@H](O)[C@@H](O)[C@@H](O)[C@H](O)C=O` [L-fucose] as the compound, how does the “L-fuc-triggered tumor suppression and increases in total itICs” value (SM1 tumors) read?
The value was “abrogated”.

What about the “efficacy of anti-PD1 in combination with oral L-fuc” value (SW1 tumors) of the same compound?
Its value is “did not enhance”.
